The source of these data is patent US12428388B2, “Nonionic polyether surfactants” (Cepheid, priority 2020, dated 2025).

Data set [1] is described as follows: Stability in 2M NaOH (visual observation). The class given is physicochemical. To be noted: 1% surfactant in 2M NaOH, room temperature. As to the method: In the following experiments, the properties of exemplary reduced polysorbates were compared with the starting materials purchased from Sigma: Tween 20® BioXtra, Cat No P7949 and Tween 80® BioXtra, Cat No P8074
The following solutions are prepared in two vials: (A) 1% Tween 20® in 2M NaOH; (B) 1% Compound 2 in 2M NaOH. Both solutions were left at room temperature and the changes were observed visually.
Similarly, hydrolytic stability of (A) Tween 80® and (B) Compound 2 were compared.

In data set [2] the test system is Esterase from porcine liver. Kind of data set: Resistance to Esterase Hydrolysis. The class given is in vitro ADME. To be noted: 1% surfactant in 10 mM tris-HCl (pH 8.0), CaCl2, Esterase from porcine liver (Sigma E2884), room temperature. As for the experimental part: (§1) Stability of surfactants in the presence of hydrolyzing enzymes was tested according to a simplified literature procedure (Francisco J. Plou, Manuel Ferrer, Oscar M. Nuero, Maria V. Calvo, Miguel Alcalde, Fuensanta Reyes, Antonio Ballesteros. Analysis of Tween 80 as an esterase/lipase substrate for lipolytic activity assay. Biotechnology Techniques, Vol 12, No 3, March 1998, pp. 183-186.)
B2. Resistance to Esterase Hydrolysis
The following solutions were prepared in two vials: (A) to 20 mL of 1% Tween 20® in 10 mM tris-HCl (pH 8.0) is added 1 mL of 5% CaCl2) followed by 40 μL of 100 UN/mL solution of Esterase from porcine liver (Sigma E2884) in 10 μM tris-HCl (pH 8.0); (B) to 20 mL of 1% Compound 1 in 10 mM tris-HCl (pH 8.0) is added 1 mL of 5% CaCl2 followed by 40 μL of 100 UN/mL solution of Esterase from porcine liver in 10 μM tris-HCl (pH 8.0). Both solutions were left at room temperature and changes were observed visually.

Data set [3] has as its target T1, Lipase from porcine pancreas (Sus scrofa, UniProt P00591).
T1 construct: Lipase from porcine pancreas (Sigma L3126); purchased Sigma L3126; host or cells: porcine pancreas (tissue-derived)
T1 sequence (P00591 1-450): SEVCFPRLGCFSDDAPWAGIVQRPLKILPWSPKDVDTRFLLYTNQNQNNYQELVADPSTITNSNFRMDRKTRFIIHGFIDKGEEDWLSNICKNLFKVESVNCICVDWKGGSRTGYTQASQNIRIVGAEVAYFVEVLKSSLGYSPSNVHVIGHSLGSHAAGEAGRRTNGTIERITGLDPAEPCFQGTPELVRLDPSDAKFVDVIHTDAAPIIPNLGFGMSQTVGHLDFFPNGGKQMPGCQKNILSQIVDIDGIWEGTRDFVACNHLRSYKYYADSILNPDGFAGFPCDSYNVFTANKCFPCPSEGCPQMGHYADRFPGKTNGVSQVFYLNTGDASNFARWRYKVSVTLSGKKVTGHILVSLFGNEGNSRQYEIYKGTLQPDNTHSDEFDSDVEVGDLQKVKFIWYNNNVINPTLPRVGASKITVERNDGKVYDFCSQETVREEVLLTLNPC
The data set is described as follows: Resistance to Lipase Hydrolysis. Particulars: 1% surfactant in 10 mM tris-HCl (pH 8.0), CaCl2, Lipase from porcine pancreas (Sigma L3126), room temperature. It counts as in vitro ADME. As for the experimental part:
as §1
B1. Resistance to Lipase Hydrolysis
The following solutions are prepared in two vials: (A) to 20 mL of 1% Tween 20® in 10 mM tris-HCl (pH 8.0) is added 1 mL of 5% CaCl2) followed by 2 mL of 2 mg/mL solution of Lipase from porcine pancreas (Sigma L3126) in 10 μM tris-HCl (pH 8.0); (B) to 20 mL of 1% Compound 1 in 10 mM tris-HCl (pH 8.0) is added 1 mL of 5% CaCl2) followed by 2 mL of 2 mg/mL solution of Lipase from porcine pancreas (Sigma L3126) in 10 μM tris-HCl (pH 8.0). Both solutions were left at room temperature, and changes were observed visually.

Take “polyoxyethylene sorbitan monolaurate [Tween 20®]”: the “hydrolytic stability in 2M NaOH, changes of the solution observed visually” value in data set [1] was “became non-transparent within one hour and turned into stiff gel the next day”. The “stability to esterase hydrolysis, changes of the solution observed visually” value in data set [2] was “became cloudy within one hour and became non-transparent the next day”. Besides, the “stability to lipase hydrolysis, changes of the solution observed visually” value in data set [3] was “became cloudy within one hour and became non-transparent the next day”.

In the case of “polyoxyethylene sorbitan monooleate [Tween 80®]”, in data set [1], the “hydrolytic stability in 2M NaOH, changes of the solution observed visually” value is “became cloudy within one hour and turned into a stiff gel the next day”.
